{"source": "patent EP2931723B1", "about": "“NEW BICYCLIC COMPOUNDS AND THEIR USE AS ANTIBACTERIAL AGENTS AND -LACTAMASE INHIBITORS” (Fedora Pharmaceuticals Inc., priority 2012, dated 2014)", "assay_in_all_cases": "MIC, antibacterial and synergistic activity", "type_in_all_cases": "cell-based", "key": {"[1]": {"test_system": "E. coli JMI 10770", "conditions": "Escherichia coli, JMI10770; E. coli JMI 10770 (CTX-M15 (Hyper ESBL)); substance alone"}, "[2]": {"test_system": "K. pneumo JMI 4106", "conditions": "K. pneumo JMI 4106 (KPC-3, TEM-1, SHV-12, SHV-141)"}, "[3]": {"test_system": "E. coli JMI 11103"}, "[4]": {"test_system": "E. coli JMI 10768", "conditions": "E. coli JMI 10768 (CTX-M15 (Weak ESBL)); Meropenem + inhibitor at 4 µg/mL"}, "[5]": {"test_system": "K. pneumo JMI 4088", "conditions": "K. pneumo JMI 4088 (KPC-3 (Cpase)); substance alone"}, "[6]": {"test_system": "K. pneumo JMI 2673", "conditions": "K. pneumo JMI 2673 (CTX-M14 (ESBL)); substance alone"}, "[7]": {"test_system": "K. pneumo JMI 2674", "conditions": "K. pneumo JMI 2674 (CTX-M15 (ESBL)); substance alone"}, "[8]": {"test_system": "E. coli JMI 10767", "conditions": "E. coli JMI 10767 (Wt)"}, "[9]": {"test_system": "P. aerug JMI 2686", "conditions": "P. aerug JMI 2686 (KPC-2 (Cpase)); substance alone"}, "[10]": {"test_system": "K. pneumo JMI 2697", "conditions": "K. pneumo JMI 2697 (IMP-4 (Cpase))", "protocol": "In the Tables 10 - 12, compounds herein disclosed were tested in combination with various antibiotics against metallo β-lactamase producing bacteria."}, "[11]": {"test_system": "K. pneumo JMI 2681", "conditions": "K. pneumo JMI 2681 (Oxa-48 (Cpase))"}, "[12]": {"test_system": "K.pneumo JMI 4109", "conditions": "K.pneumo JMI 4109 (SHV-1, SHV-12); substance alone"}, "[13]": {"test_system": "P. aerug JMI 2686", "conditions": "P. aerug JMI 2686 (KPC-2 (Cpase))", "in_short": "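This antibacterial synergy assay measured the minimum inhibitory concentration of antibiotics combined with the disclosed inhibitor compounds. The inhibitor was held at 4 µg/mL throughout. The aim was to see whether the added compound strengthened the antibiotic's action against the tested bacteria.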"}, "[14]": {"test_system": "E. coli JMI 10770", "conditions": "E. coli JMI 10770 (CTX-M15 (Hyper ESBL))", "protocol": "(§1) In the Tables 10 - 12, compounds herein disclosed were tested in combination with various antibiotics against metallo β-lactamase producing bacteria. Table 3: Synergy of the inhibitor Ex. 1 (4 µg/mL) in combination with antibiotics"}, "[15]": {"test_system": "K. pneumo JMI 2674", "conditions": "K. pneumo JMI 2674 (CTX-M15 (ESBL))", "in_short": "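Antibacterial activity was assessed as minimum inhibitory concentrations against a β-lactamase-producing bacterial strain. Each test inhibitor was combined with an antibiotic, with the inhibitor held at a fixed 4 µg/mL, to determine whether it acted synergistically and restored the antibiotic's effect against the resistant organism.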"}, "[16]": {"test_system": "K. pneumo JMI 4088", "conditions": "K. pneumo JMI 4088 (KPC-3 (Cpase))", "in_short": "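Minimum inhibitory concentrations were measured for antibiotics given together with the test inhibitor, held at 4 µg/mL, against bacteria that produce β-lactamase. The purpose was to see whether the inhibitor restores or boosts antibacterial activity, that is, synergy with the antibiotic.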"}, "[17]": {"test_system": "K. pneumo JMI 2699", "conditions": "K. pneumo JMI 2699 (VIM-1, CTX-M3)", "in_short": "(§2)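 Read-out is the MIC of each antibiotic with 4 µg/mL inhibitor present, in metallo β-lactamase-producing strains.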"}, "[18]": {"test_system": "K.pneumo JMI 4109", "conditions": "K.pneumo JMI 4109 (SHV-1, SHV-12)", "in_short": "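Antibacterial synergy was assessed by pairing each inhibitor compound, at a constant concentration of 4 µg/mL, with β-lactam antibiotics. The combinations were run against bacterial strains that produce β-lactamases, and the readout was the minimum inhibitory concentration of the antibiotic in the presence of the inhibitor.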"}, "[19]": {"test_system": "E. coli JMI 2671", "in_short": "as §2"}, "[20]": {"test_system": "E. coli JMI 10767", "conditions": "E. coli JMI 10767 (Wt)", "protocol": "as §1", "remark": "listed apart in the source"}, "[21]": {"test_system": "E. coli JMI 2665", "protocol": "as §1"}, "[22]": {"test_system": "K. pneumo JMI 2673", "conditions": "K. pneumo JMI 2673 (CTX-M14 (ESBL))", "in_short": "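Compounds were evaluated together with various antibiotics to measure synergistic antibacterial activity. For each combination, the minimum inhibitory concentration of the antibiotic was recorded while the inhibitor was present at a constant 4 µg/mL.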"}, "[23]": {"test_system": "E. coli JMI 10768", "conditions": "E. coli JMI 10768 (CTX-M15 (Weak ESBL))", "protocol": "as §1"}, "[24]": {"conditions": "Aztreonam + inhibitor at 4 µg/mL"}, "[25]": {"conditions": "Ceftazidime + inhibitor at 4 µg/mL"}, "[26]": {"conditions": "Meropenem + inhibitor at 4 µg/mL"}}}
{"smiles": "NCCONC(=O)[C@@H]1CC[C@@H]2CN1C(=O)N2OS(=O)(=O)O", "note": "[Ex. 3, (2S,5R)-N-(2-Aminoethoxy)-7-oxo-6-(sulfooxy)-1,6-diazabicyclo[3.2.1]octane-2-carboxamide]", "values": [{"measurement": "MIC", "setting": "[1]", "value": "> 16", "unit": "µg/mL"}, {"measurement": "MIC Aztreonam + inhibitor", "setting": "[2]; [24]", "value": "≤0.062", "unit": "µg/mL"}, {"measurement": "MIC Ceftazidime + inhibitor", "setting": "[2]; [25]", "value": "≤0.25", "unit": "µg/mL"}, {"measurement": "MIC Meropenem + inhibitor", "setting": "[2]; [26]", "value": "≤0.0312", "unit": "µg/mL"}, {"measurement": "MIC", "setting": "[2]; substance alone, read-out: MIC", "value": 2, "unit": "µg/mL"}, {"measurement": "MIC Aztreonam + inhibitor", "setting": "[3]; E. coli JMI 11103 (CTX-M15 (Intermediate ESBL)), Aztreonam + inhibitor at 4 µg/mL", "value": 0.5, "unit": "µg/mL"}, {"measurement": "MIC Ceftazidime + inhibitor", "setting": "[3]; E. coli JMI 11103 (CTX-M15 (Intermediate ESBL)), Ceftazidime + inhibitor at 4 µg/mL", "value": 0.5, "unit": "µg/mL"}, {"measurement": "MIC Meropenem + inhibitor", "setting": "[3]; E. coli JMI 11103 (CTX-M15 (Intermediate ESBL)), Meropenem + inhibitor at 4 µg/mL", "value": 0.062, "unit": "µg/mL"}, {"measurement": "MIC", "setting": "[3]; Escherichia coli, JMI11103, E. coli JMI 11103 (CTX-M15 (Intermediate ESBL)), substance alone", "value": 4, "unit": "µg/mL"}, {"measurement": "MIC Meropenem + inhibitor", "setting": "[4]", "value": 0.062, "unit": "µg/mL"}, {"measurement": "MIC", "setting": "[5]", "value": 2, "unit": "µg/mL"}, {"measurement": "MIC", "setting": "[6]", "value": "> 16", "unit": "µg/mL"}, {"measurement": "MIC", "setting": "[7]", "value": "> 16", "unit": "µg/mL"}, {"measurement": "MIC Meropenem + inhibitor", "setting": "[8]; [26]", "value": "≤0.0312", "unit": "µg/mL"}, {"measurement": "MIC", "setting": "[8]; Escherichia coli, JMI10767, substance alone", "value": 2, "unit": "µg/mL"}, {"measurement": "MIC", "setting": "[9]", "value": "> 16", "unit": "µg/mL"}, {"measurement": "MIC Aztreonam + inhibitor", "setting": "[10]; [24]", "value": 0.25, "unit": "µg/mL"}, {"measurement": "MIC Ceftazidime + inhibitor", "setting": "[10]; [25]", "value": 0.5, "unit": "µg/mL"}, {"measurement": "MIC Meropenem + inhibitor", "setting": "[10]; [26]", "value": 0.25, "unit": "µg/mL"}, {"measurement": "MIC", "setting": "[10]; substance alone", "value": 8, "unit": "µg/mL"}, {"measurement": "MIC Aztreonam + inhibitor", "setting": "[11]; [24]", "value": 1, "unit": "µg/mL"}, {"measurement": "MIC Ceftazidime + inhibitor", "setting": "[11]; [25]", "value": "≤0.25", "unit": "µg/mL"}, {"measurement": "MIC Meropenem + inhibitor", "setting": "[11]; [26]", "value": 0.5, "unit": "µg/mL"}, {"measurement": "MIC", "setting": "[11]; substance alone, read-out: MIC", "value": "> 16", "unit": "µg/mL"}, {"measurement": "MIC", "setting": "[12]", "value": 2, "unit": "µg/mL"}, {"measurement": "MIC Aztreonam + inhibitor", "setting": "[13]; [24]", "value": ">4", "unit": "µg/mL"}, {"measurement": "MIC Ceftazidime + inhibitor", "setting": "[13]; [25]", "value": 16, "unit": "µg/mL"}, {"measurement": "MIC Meropenem + inhibitor", "setting": "[13]; [26]", "value": ">2", "unit": "µg/mL"}, {"measurement": "MIC Aztreonam + inhibitor", "setting": "[14]; [24]", "value": 8, "unit": "µg/mL"}, {"measurement": "MIC Ceftazidime + inhibitor", "setting": "[14]; [25]", "value": 2, "unit": "µg/mL"}, {"measurement": "MIC Meropenem + inhibitor", "setting": "[14]; [26]", "value": 0.062, "unit": "µg/mL"}, {"measurement": "MIC Aztreonam + inhibitor", "setting": "[15]; [24]", "value": 0.5, "unit": "µg/mL"}, {"measurement": "MIC Ceftazidime + inhibitor", "setting": "[15]; [25]", "value": "≤0.25", "unit": "µg/mL"}, {"measurement": "MIC Meropenem + inhibitor", "setting": "[15]; [26]", "value": 0.125, "unit": "µg/mL"}, {"measurement": "MIC Aztreonam + inhibitor", "setting": "[16]; [24]", "value": 1, "unit": "µg/mL"}, {"measurement": "MIC Ceftazidime + inhibitor", "setting": "[16]; [25]", "value": "≤0.25", "unit": "µg/mL"}, {"measurement": "MIC Meropenem + inhibitor", "setting": "[16]; [26]", "value": 0.25, "unit": "µg/mL"}, {"measurement": "MIC Aztreonam + inhibitor", "setting": "[17]; [24]", "value": "≤0.062", "unit": "µg/mL"}, {"measurement": "MIC Ceftazidime + inhibitor", "setting": "[17]; [25]", "value": "≤0.25", "unit": "µg/mL"}, {"measurement": "MIC Meropenem + inhibitor", "setting": "[17]; [26]", "value": "≤0.0312", "unit": "µg/mL"}, {"measurement": "MIC", "setting": "[17]; substance alone, read-out: MIC", "value": 4, "unit": "µg/mL"}, {"measurement": "MIC Aztreonam + inhibitor", "setting": "[18]; [24]", "value": "≤0.062", "unit": "µg/mL"}, {"measurement": "MIC Ceftazidime + inhibitor", "setting": "[18]; [25]", "value": "≤0.25", "unit": "µg/mL"}, {"measurement": "MIC Meropenem + inhibitor", "setting": "[18]; [26]", "value": "≤0.0312", "unit": "µg/mL"}, {"measurement": "MIC Aztreonam + inhibitor", "setting": "[19]; E. coli JMI 2671 (VIM-19 (Cpase)), Aztreonam + inhibitor at 4 µg/mL", "value": "≤0.062", "unit": "µg/mL"}, {"measurement": "MIC Ceftazidime + inhibitor", "setting": "[19]; E. coli JMI 2671 (VIM-19 (Cpase)), Ceftazidime + inhibitor at 4 µg/mL", "value": "≤0.25", "unit": "µg/mL"}, {"measurement": "MIC Meropenem + inhibitor", "setting": "[19]; E. coli JMI 2671 (VIM-19 (Cpase)), Meropenem + inhibitor at 4 µg/mL", "value": "≤0.0312", "unit": "µg/mL"}, {"measurement": "MIC", "setting": "[19]; Escherichia coli, JMI2671, E. coli JMI 2671 (VIM-19 (Cpase)), substance alone", "value": 2, "unit": "µg/mL"}, {"measurement": "MIC Aztreonam + inhibitor", "setting": "[20]; [24]", "value": "≤0.062", "unit": "µg/mL"}, {"measurement": "MIC Ceftazidime + inhibitor", "setting": "[20]; [25]", "value": "≤0.25", "unit": "µg/mL"}, {"measurement": "MIC Aztreonam + inhibitor", "setting": "[21]; E. coli JMI 2665 (CMY-2 (Plasmid Cpase)), Aztreonam + inhibitor at 4 µg/mL", "value": "≤0.062", "unit": "µg/mL"}, {"measurement": "MIC Ceftazidime + inhibitor", "setting": "[21]; E. coli JMI 2665 (CMY-2 (Plasmid Cpase)), Ceftazidime + inhibitor at 4 µg/mL", "value": "≤0.25", "unit": "µg/mL"}, {"measurement": "MIC", "setting": "[21]; Escherichia coli, JMI2665", "value": 2, "unit": "µg/mL"}, {"measurement": "MIC Aztreonam + inhibitor", "setting": "[22]; [24]", "value": 0.125, "unit": "µg/mL"}, {"measurement": "MIC Ceftazidime + inhibitor", "setting": "[22]; [25]", "value": "≤0.25", "unit": "µg/mL"}, {"measurement": "MIC Meropenem + inhibitor", "setting": "[22]; [26]", "value": "≤0.0312", "unit": "µg/mL"}, {"measurement": "MIC Aztreonam + inhibitor", "setting": "[23]; [24]", "value": "≤0.062", "unit": "µg/mL"}, {"measurement": "MIC Ceftazidime + inhibitor", "setting": "[23]; [25]", "value": "≤0.25", "unit": "µg/mL"}, {"measurement": "MIC", "setting": "[23]; Escherichia coli, JMI10768, substance alone", "value": 4, "unit": "µg/mL"}]}
